system: Oxidoreduktase aus Metschnikowia zobellii; assay: Substrate spectrum (relative enzyme activity, standard assay of Example 5.1); format: biochemical; conditions: not given

| SMILES | Relative Aktivität % |
| --- | --- |
| O=C(CCl)CCCl [1,4-Dichlor-butan-2-on] | 27% |
| CC(=O)Cc1ccccc1 [1-Phenyl-2-propanon] | 15% |
| O=C(CCl)c1cccc(Cl)c1 [2-chlor-1-(3-chlor-pheny)-ethan-1-on] | 5% |
| CCOC(=O)CC(=O)CCl [4-Chloracetessigsäureethylester] | 100% |
| CCC(C)=O [Butan-2-on] | 0% |
| O=C1CCCCC1 [Cyclohexanon] | 3% |

same assay, conditions: activity with 2-Oxo-4-phenyl-buttersäureethylester set to 100%; NADPH; 25 °C

| SMILES | Relative Aktivität % |
| --- | --- |
| CC1CCCCC1=O (stereo not shown) [2-Methylcyclohexanon] | 8% |
| CCOC(=O)C1CCCCC1=O (stereo not shown) [2-Oxo-cyclohexan-carbonsäure-ethylester] | 20% |
| CCOC(=O)C1CCCC1=O (stereo not shown) [2-Oxo-cyclopentan carbonsäure-ethylester] | 8% |
| CC1CCCC(=O)C1 (stereo not shown) [3-Methylcyclohexanon] | 8% |
| COC(=O)CCCCC(=O)CC(=O)OC [3-Oxo-1,8-octandisäure-dimethylester] | 35% |
| CCOC(=O)CCCCC(=O)CCCl [8-Chlor-6-oxo-octansäure-ethylester] | 50% |
| CCOC(=O)C(=O)c1ccccc1Cl [(2-chlorphenyl)-oxo-essigsäure ethylester] | 50% |
| CC(=O)c1ccccc1 [Acetophenon] | 0% |
| CCCCCCCC(=O)c1ccccc1 [Caprylophenon] | 0% |
| CCOC(=O)C(=O)CCc1ccccc1 [Ethyl-2-oxo-4-phenyl-buttersäure] | 100% |
| CCCC(=O)C(=O)OCC [Ethyl-2-oxovaleriansäure] | 100% |
| CCOC(=O)C(=O)c1ccccc1 [Ethylphenylglyoxylat] | 50% |

system: rekombinante Oxidoreduktase aus Metschnikowia zobellii; assay: not given; format: biochemical; conditions: not given

| SMILES | des eingesetzten Substrats reduziert |
| --- | --- |
| CCOC(=O)CCCCC(=O)CCCl [8-Chlor-6-oxo-octansäure-ethylester] | 55% |
| CCOC(=O)C(=O)CCc1ccccc1 [Ethyl-2-oxo-4-phenyl-buttersäure] | 92% |
| CCOC(=O)C(=O)c1ccccc1 [Ethylphenylglyoxylat] | 50% |

same assay, conditions: Nach 48 h; 25 °C; two-phase system

| SMILES | des eingesetzten Substrats reduziert |
| --- | --- |
| O=C(CCl)c1ccccc1 [2-Chlor-1-phenyl-ethan-1-on] | 75% |
